Data reported in patent publication US20200062719A1, “Application of Imidazopyridine Derivatives in Regenerative Medicine” (University of Heidelberg, priority 2018, published 2020).

Each molecule was assayed on promoter of Oct4 (assay: ChIP-qPCR of H3K4Me3 at the promoter of Oct4 in reprogramming-resistant fibroblasts). Conditions: HF4, in combination with OSKM overexpression.
Format: cell-based, human
Source text: The importance of active tri-methylation of histone H3 lysine 4 (H3K4Me3) in promoting transcription factors binding to an ‘open’ chromatin state and thereby initiation of reprogramming is known in the art. In good agreement, the inventors found the abundance of H3K4Me3 in O4I3-treated reprogramming-resistant fibroblasts by immunostaining (FIG. 14) and immunoblotting (FIG. 5B). To directly study if O4I3 facilitated the binding of H3K4Me3 to the promoter of Oct4, a CHIP-qPCR experiment was performed.
In reprogramming-resistant HF4, the level of H3K4Me3 at the promoter of OCT4 was increased by OSKM, but was still nearly 1,000-fold lower than that in PSCs (FIG. 19A). […] However, a clear influence on H3K4 methylation was not observed in the presence of KDM5B-, KDM5C-, or KDM5D-siRNA (FIG. 19A). […] Indeed, the reprogramming efficiency is negatively correlated with the expression of KDM5A in 11 HFs (FIG. 19D). Moreover, KDM5A siRNA increased the global level of H3K4Me3 in a dose-dependent manner (FIG. 19E). Of note, the alternation in the occupation of H3K27Me3 at the promoter of OCT4 was more refractory to chemical inhibition or genetic repression of KDM5s in the inventors' experiments (FIG. 19B). […]

Structure (SMILES)	levels of H3K4Me3 at the promoter of OCT4
Clc1ccc(N/N=C(\c2ccccc2)c2ccccn2)nc1 [JIB-04, reference compound]	significantly elevated

What follows are molecules tested on Oct4 (assay: Luciferase reporter assay in NCCIT-Oct4 cells). Conditions: histone demethylase inhibitors, 48 h.
Format: cell-based, human
Protocol: The ability of the lead compound to induce Oct4 at translational level was tested in a luciferase reporter cell line in human embryonic carcinoma NCCIT cells driven by Oct4 response elements (NCCIT-Oct4). The compound lead to a nearly 10-fold induction of Oct4 at 10 nM compared to untreated cells (FIG. 1B). Consequently, the lead compound was named “Oct4 inducing compound 3” (O4I3).
Luciferase reporter assay was performed using Beatle Juice Kit (PJK, Germany) according to the manufacturer's instruction. NCCIT-Oct and NCCIT-Nanog reporter cells were plated into a 24-well plate (100,000 cells/well) for 24 h. Cells were treated with compounds as indicated and harvested with luciferase lysis buffer (25 mM Tris phosphate buffer pH=7.8, 4 mM EGTA, 1% Triton X-100, 10% glycerol and 2 mM fresh DTT, filtered through 0.45 μm sterile filter) at 37° C. for 15 min. The protein concentration was determined by Bradford assay (Sigma, Germany). 100 μL reaction mixture containing luciferin and ATP was added to 20 μL cell lysis in a white plate (Gibco, Germany), incubated for 5 min and measured by a luminometer plate-reader. The activity was determined as percent luminous intensity of treated cells over control cells from at least five-independent experiments.

Structure (SMILES)	induction of OCT4 expression in NCCIT-OCT4 reporter cell line
CC(C)c1c(-c2ccccc2)[nH]c2c(C#N)cnn2c1=O [CPI-455]	3 fold
Clc1ccc(N/N=C(\c2ccccc2)c2ccccn2)nc1 [JIB-04, reference compound]	5 fold
CN(C)NC(=O)CCC(=O)O [daminozide]	not
CCOC(=O)CCNc1cc(N2CCc3ccccc3CC2)nc(-c2ccccn2)n1 [GSK-J4]	not

Each molecule was assayed on Oct4 (assay: Luciferase reporter assay in NCCIT-Oct4 cells). Conditions: 100 nM, NCCIT-Oct4 cells.
Format: cell-based, human

Structure (SMILES)	Oct4 inducing activity as compared to the activity of O4I3 (101)
Cc1ccc2nc(-c3ccc(F)cc3)cn2c1 [Compound 102, 2-(4-fluorophenyl)-6-methyl-imidazo[1,2-a]pyridine]	increased the activity
COc1ccc(-c2cn3cc(C)ccc3n2)cc1 [Compound 106, 2-(4-methoxyphenyl)-6-methyl-imidazo[1,2-a]pyridine]	significantly reduced the induction
Cc1ccc2nc(-c3ccc(Br)cc3)cn2c1 [Compound 104, 2-(4-bromophenyl)-6-methyl-imidazo[1,2-a]pyridine]	increased the activity
Cc1ccc2nc(-c3ccc(C#N)cc3)cn2c1 [Compound 108, 4-(6-methylimidazo[1,2-a]pyridin-2-yl)benzonitrile]	significantly reduced the induction
Cc1ccc2nc(-c3ccc([N+](=O)[O-])cc3)cn2c1 [Compound 105, 6-methyl-2-(4-nitrophenyl)imidazo[1,2-a]pyridine]	significantly reduced the induction
Cc1ccc2nc(-c3ccc(Cl)cc3)cn2c1 [Compound 103, 2-(4-chlorophenyl)-6-methyl-imidazo[1,2-a]pyridine]	increased the activity
Cc1ccc2nc(-c3ccc(O)cc3)cn2c1 [Compound 107, 4-(6-methylimidazo[1,2-a]pyridin-2-yl)phenol]	significantly reduced the induction
Cc1ccc2nc(-c3ccccc3)cn2c1 [Compound 109, 6-methyl-2-phenyl-imidazo[1,2-a]pyridine]	not affected

Each molecule was assayed on human fibroblasts (assay: qRT-PCR of reprogramming associated genes in human fibroblasts). Conditions: JIB-04 treated fibroblasts.
Format: cell-based
Parameters: expression of OCT4, SOX2, and E-Cadherin in HFs: dose or concentration left out as unconfirmed
Protocol: Analyzing the effects of O4I3 on human fibroblasts, the activation of reprogramming associated genes, including an about 10-fold induction of Oct4, Nanog and Lin28, and an about 100-fold increase of Sox2 and E-Cadherin mRNA levels was detected. In particular, expression of several essential genes for reprogramming is equal to those in pluripotent stem cells, such as Esrrb, FGF2 and Sall4 (FIG. 12).
Quantitative reverse-transcription real-time-PCR was performed using a Light Cycler 96 (Roche, Germany) following the manufacturer's protocol. Briefly, total RNA was isolated from cells using TRIzol (Qiagen, Germany) or NucleoSpin®RNA Plus (Macherey-Nagel, Germany). The same amount of RNA was used to reverse-transcriptional synthesize cDNA by using random primers ProtoScript® First Strand cDNA Synthesis Kit (NEB, Germany). qPCR was performed using the SYBR Green PCR master mix (qPCRBIO SyGreen Mix Lo-Rox, Nippon Genetics, Germany) and the primer pairs indicated below (MWG, Eurofins, Germany). Actin was used as an endogenous control. Data were normalized to the value of untreated cells showing the mean±SD of quadruplicates and are representative of at least three independent experiments.

Structure (SMILES)	expression of OCT4, SOX2, and E-Cadherin in HFs
Clc1ccc(N/N=C(\c2ccccc2)c2ccccn2)nc1 [JIB-04, reference compound]	induction

Each molecule was assayed on OCT4-promoter (assay: Luciferase reporter assay in HEK-OCT4 cells). Conditions: not given.
Format: cell-based
Protocol: In an effort to find such chemical structures able to induce pluripotency, a high-throughput screening (HTS) was performed. The screen was based on cellular luciferase reporter assays under the control of the promoter activity of a pluripotency-associated transcription factor (Oct4) in HEK293 cells.
The inventors adopted Hantzsch thiazole synthesis (FIG. 20A) and produced a series of new O4I2-ester derivatives (FIG. 20B). Their activities were measured in three luciferase report cell lines, namely HEK-OCT4, driven by the activation of OCT4-promoter, and NCCIT-OCT4 and NCCIT-NANOG, whose intensities are controlled by endogenous OCT4 and NANOG respectively. […] Carboxylesterase 1 (CES1) is an enzyme majorly contributing to ester-to-acid conversion.

Structure (SMILES)	activity in HEK-OCT4 cells
O=C(O)c1csc(Nc2ccc(Cl)cc2)n1 [O4I2-COON, 2-(4-chlorophenylamino)thiazole-4-carboxylic acid]	inactive
